Values quoted from earlier work in patent US20210315249A1, “Cannabis-Infused Product with Controlled Cannabinoid Profile User Experience” (HEXO […]., priority 2018, published 2021).
Where two headings read alike, the source gives them in different places.

How the values were obtained:
[1] = dogs; emulsion droplet size 119 nm or 52 nm
[2] = rats; solution in MCT oil or emulsion with droplet size 160 nm or 710 nm

| SMILES | bioavailability [1] | bioavailability [2] |
| --- | --- | --- |
| CCCCN(CCCC)CCC(O)c1cc2c(Cl)cc(Cl)cc2c2cc(C(F)(F)F)ccc12 (centres unmarked) [halofantrine] | comparable bioavailability |  |
| COc1nc(C(Cl)(Cl)Cl)c(Cl)c(OC)c1Cl [penclomedine] |  | comparable bioavailability |
